Measurements from article PMC3527108 (Journal of medicinal chemistry, 2012).
Where two headings read alike, the source gives them in different places.

What was measured:
[1] = test system: GI transit in morphine naive mice; conditions: similar assay, similar dose (about 10 mg/kg); cited from earlier work
[2] = test system: GI transit in morphine-pelleted mice; conditions: cited from earlier work
[3] = test system: Caco-2 cells; conditions: cited from earlier work
[4] = test system: opioid-induced constipation in patients; conditions: cited from earlier work; for patients with laxation within 4 hours after the first dose: clinical trial, subcutaneous
[5] = test system: antinociception (tail flick) in mice; test: Warm-water tail flick test; format: in vivo; conditions: morphine 10 mg/kg, dose up to 30 mg/kg
[6] = test system: Caco-2 cells; test: Bidirectional transport in Caco-2 cells; format: in vitro ADME; conditions: apical/basolateral, up to 2 h
[7] = target: mu opioid receptor (MOR) (Homo sapiens, UniProt P35372); test: Competitive radioligand binding assay, MOR; conditions: from Ki values
[8] = low due to significant hepatic first-pass; cited from earlier work

mu opioid receptor (MOR), sequence (P35372 whole entry, species assumed): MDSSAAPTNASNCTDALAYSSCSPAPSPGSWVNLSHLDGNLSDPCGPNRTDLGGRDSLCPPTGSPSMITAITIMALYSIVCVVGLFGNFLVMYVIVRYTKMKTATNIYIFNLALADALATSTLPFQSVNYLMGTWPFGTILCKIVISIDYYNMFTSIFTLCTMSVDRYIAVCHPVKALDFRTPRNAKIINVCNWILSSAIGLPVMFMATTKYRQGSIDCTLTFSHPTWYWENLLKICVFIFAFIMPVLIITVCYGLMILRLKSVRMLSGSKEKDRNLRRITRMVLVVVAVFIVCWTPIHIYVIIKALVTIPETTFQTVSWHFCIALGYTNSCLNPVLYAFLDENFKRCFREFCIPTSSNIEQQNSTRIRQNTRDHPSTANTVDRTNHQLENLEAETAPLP

O=C(N[C@@H]1CC[C@@]2(O)[C@H]3Cc4ccc(O)c5c4[C@@]2(CCN3CC2CC2)[C@H]1O5)c1ccncc1 [NAP, 17-cyclopropylmethyl-3, 14β-dihydroxy-4,5α-epoxy-6β-[(4’ -pyridyl)carboxamido]morphinan]
effect of compound alone on intestinal motility [1]: intestinal motility decreased
ED50 in the GI transit assay ([2]; GI transit assay): 8.8 µg/kg
incidence of diarrhea ([2]; high doses): incidence of diarrhea associated with high doses
apparent permeability [3]: significantly low

C[N@+]1(CC2CC2)CC[C@]23c4c5ccc(O)c4O[C@H]2C(=O)CC[C@@]3(O)[C@H]1C5 [MNTX, methylnaltrexone]
efficiency to induce SBM [4]: ≤ 62%
patients with laxation within 4 hours after the first dose ([4]; placebo 14%): 62%
patients with laxation within 4 hours after the first dose ([4]; placebo 15%): 48%

O=C(CNC(=O)c1ccncc1)N[C@@H]1CC[C@@]2(O)[C@H]3Cc4ccc(O)c5c4[C@@]2(CCN3CC2CC2)[C@H]1O5 [Compound 12, 17-Cyclopropylmethyl-3,14β-dihydroxy-4,5α-epoxy-6β-{2′-[(pyridine-4′′-yl)carboxamido]acetamido}morphinan]
antagonism of antinociceptive effect of morphine [5]: no apparent antagonism effect

Cc1cnccc1C(=O)N[C@@H]1CC[C@@]2(O)[C@H]3Cc4ccc(O)c5c4[C@@]2(CCN3CC2CC2)[C@H]1O5 [Compound 8, 17-Cyclopropylmethyl-3,14β-dihydroxy-4,5α-epoxy-6β-{[4′-(3′-methylpyridyl)]carboxamido}morphinan]
apparent permeability / bidirectional transport [6]: low permeability

O=C(N[C@@H]1CC[C@@]2(O)[C@H]3Cc4ccc(O)c5c4[C@@]2(CCN3CC2CC2)[C@H]1O5)c1ccnc(Cl)c1 [Compound 1, 17-Cyclopropylmethyl-3,14β-dihydroxy-4,5α-epoxy-6β-{[4′-(2′-chloropyridyl)]carboxamido}morphinan]
MOR selectivity over DOR [7]: over 1000 fold

C=CCN1CC[C@]23c4c5ccc(O)c4O[C@H]2C(=O)CC[C@@]3(O)[C@H]1C5 [Naloxone]
systemic bioavailability [8]: ~ 2%
